ChEMBL document CHEMBL1127989, “Structure-activity studies of synthetic FKBP ligands as peptidyl-prolyl isomerase inhibitors” (Bioorg Med Chem Lett, 1994)

Legend:
[1] = Inhibition constant against peptidyl prolyl isomerase; conditions: read-out: Ki app
[2] = Apparent inhibition constant against peptidyl prolyl isomerase (Ki app)
[3] = Apparent inhibition constant against peptidyl prolyl isomerase; range=0.004-0.010; conditions: read-out: Ki app
[4] = Apparent inhibition constant against peptidyl prolyl isomerase; range = 0.002-0.006; conditions: read-out: Ki app
[5] = Apparent inhibition constant against peptidyl prolyl isomerase; range=0.3-0.6; conditions: read-out: Ki app

Row | Compound | Ki [1] | also measured
1 | C/C(=C\c1ccccc1)COC(=O)C1CCCCN1C(=O)C(=O)C1CCCCC1 (stereo unspecified) | 300 nM | 
2 | CCCC(=O)C1CCCCN1C(=O)C(=O)C(C)(C)CC (stereo unspecified) | 30000 nM | 
3 | C=CCN(CC(=O)OCC)C(=O)C(=O)C1(OC)CCCCC1 | 260000 nM | 
4 | CCOC(=O)CN(C)C(=O)C(=O)C1(OC)CCCCC1 | 23000 nM | 
5 | CCOC(=O)[C@@H]1CCCN1C(=O)C(=O)C1(OC)CCCCC1 | 8000 nM | 
6 | O=C(C(=O)N1CCCCC1C(=O)N(CCCc1ccccc1)Cc1ccccc1)C1CCCCC1 (stereo unspecified) |  | Ki [2]: 20000 nM
7 | CCOC(=O)C1CCCCN1C(=O)C(C)=O (stereo unspecified) | 170000 nM | 
8 | CCC(C)(C)C(=O)C(=O)N1CCCCC1C(=O)OCCc1ccccc1 (stereo unspecified) | 340 nM | 
9 | O=C(C(=O)N1CCCCC1C(=O)NCCCc1ccccc1)C1CCCCC1 (stereo unspecified) | 1000 nM | 
10 | CCOC(=O)C1CCCCN1C(=O)C(=O)C(C)(C)C (stereo unspecified) | 2000 nM | 
11 | CCC(C)(C)C(=O)C(=O)N1CCCC[C@@H]1C(=O)OC(CCc1ccccc1)c1ccc2ccccc2c1 (stereo partly specified) |  | Ki [3]: 4 nM
12 | CCOC(=O)C1CCCCN1C(=O)C(=O)C1(O)CCCCC1 (stereo unspecified) | 1600 nM | 
13 | CCOC(=O)C1CCCCN1C(=O)C(=O)Cc1ccccc1 (stereo unspecified) | 9000 nM | 
14 | O=C(C(=O)N1CCCCC1C(=O)OCc1ccccc1)C1CCCCC1 (stereo unspecified) | 400 nM | 
15 | O=C(C(=O)N1CCCC[C@@H]1C(=O)NC(CO)Cc1ccccc1)C1CCCCC1 (stereo partly specified) |  | Ki [2]: 60000 nM
16 | CCOC(=O)C1CCCCN1C(=O)C(=O)C1(O)CCCCO1 (stereo unspecified) |  | Ki ([2]; read-out: Ki app): 7000 nM
17 | CCOC(=O)C1CCCCN1C(=S)C(=O)CC(C)C (stereo unspecified) | 4300 nM | 
18 | CCC(C)(C)C(=O)C(=O)N1CCCCC1C(=O)OCCc1c[nH]c2ccccc12 (stereo unspecified) | 330 nM | 
19 | CCOC(=O)C1CCCN(C(=O)C(=O)C2(OC)CCCCO2)C1 (stereo unspecified) | 180000 nM | 
20 | COC1(C(=O)C(=O)N2CCCCC2)CCCCO1 (stereo unspecified) | 160000 nM | 
21 | CCOC(=O)C1CCCCN1C(=O)C(=O)CC (stereo unspecified) | 50000 nM | 
22 | CCC(C)(C)C(=O)C(=O)N1CCCCC1C(=O)OCC(C)(C)C (stereo unspecified) | 410 nM | 

Row | Compound | Ki [1] | also measured
23 | CCOC(=O)C1CCCCN1C(=O)C(=O)C1=CCCCO1 (stereo unspecified) | 20000 nM | 
24 | CCOC(=O)C1CCCCN1C(=O)C(=O)c1ccccc1 (stereo unspecified) | 8000 nM | 
25 | CCC(C)(C)C(O)C(=O)N1CCCC[C@H]1C(=O)OCCCc1ccccc1 (stereo partly specified) | 2300 nM | 
26 | CCOC(=O)C1CCCCN1C(=O)C(=O)N1CCCCC1 (stereo unspecified) | 33000 nM | 
27 | CCC(C)(C)C(=O)C(=O)N1CCCC[C@@H]1C(=O)OC(CCc1ccc(OC)c(OC)c1)c1ccccc1 (stereo partly specified) |  | Ki [4]: 2 nM
28 | CCOC(=O)C1CCCCN1C(=O)C(=O)C(C)(C)COC(C)=O (stereo unspecified) | 1000 nM | 
29 | CCOC(=O)C1CCCCN1C(=O)C(=O)C(C)C (stereo unspecified) | 6000 nM | 
30 | CCOC(=O)C(CCc1ccccc1)NC(=O)[C@H]1CCCCN1C(=O)C(=O)C1CCCCC1 (stereo partly specified) |  | Ki [2]: 1900 nM
31 | CCC(C)(C)C(=O)C(=O)N1CCCC[C@H]1C(=O)OC(CCc1ccccc1)c1ccccc1 (stereo partly specified) |  | Ki [5]: 300 nM
32 | CCOC(=O)C1CCCCN1NC(=O)C1CCCCC1 (stereo unspecified) | 730000 nM | 
33 | CCOC(=O)[C@H]1CCCCN1C(=O)C(=O)C1(OC)CCCCC1 | 22000 nM | 
34 | CCOC(=O)[C@H]1CCCN1C(=O)C(=O)C1(OC)CCCCC1 | 600000 nM | 
35 | CCC(C)(C)C(=O)C(=O)N1CCCC[C@H]1C(=O)OC(CCc1ccccc1)C1CCCCC1 (stereo partly specified) | 300 nM | 
36 | CCOC(=O)C1CCCCN1C(=O)C(=O)CC(C)C (stereo unspecified) | 2000 nM | 
37 | CCOC(=O)C1CCCCN1C(=O)C(=O)C1(OC)CCCCC1 (stereo unspecified) | 1000 nM | 
38 | O=C(C(=O)N1CCCC[C@H]1C(=O)OC(CCC1CCCCC1)c1ccccc1)C1CCCCC1 (stereo partly specified) | 16000 nM | 
39 | CCOC(=O)C1CCCCN1C(=O)C(=O)C1CCCCC1 (stereo unspecified) | 2000 nM | 
40 | CCOC(=O)C1CCCCN1C(=O)C(=O)C1(OC)CCCCO1 (stereo unspecified) | 4000 nM | 
41 | O=C(C(=O)N1CCCCC1C(=O)NCCc1ccccc1)C1CCCCC1 (stereo unspecified) |  | Ki [2]: 3000 nM
42 | CCOC(=O)C1CCCCN1C(=O)C(=O)C(C)(C)CC (stereo unspecified) | 660 nM | 
43 | O=CC1CCCCN1C(=O)C(=O)C1CCCCC1 (stereo in doubt; 35) | 250 nM | 
44 | CO[C@H]1C[C@@H]2CC[C@@H](C)[C@@](O)(O2)C(=O)C(=O)N2CCCC[C@H]2C(=O)O[C@H]([C@H](C)C[C@@H]2CC[C@@H](O)[C@H](OC)C2)CC(=O)[C@H](C)/C=C(\C)[C@@H](O)[C@@H](OC)C(=O)[C@H](C)C[C@H](C)/C=C/C=C/C=C/1C [SIROLIMUS] | 1000 nM | 

Further compounds by falling Ki [1], results first:

Row | Ki [1] | Compound | also measured
45 | 250 nM | CCC(C)(C)C(=O)C(=O)N1CCCCC1C(=O)OCc1cccc2ccccc12 (stereo unspecified) | 
46 | 250 nM | C=CC(C)(C)C(CCc1ccccc1)OC(=O)[C@H]1CCCCN1C(=O)C(=O)C(C)(C)CC (stereo partly specified) | 
47 | 230 nM | COc1cc(CCCOC(=O)[C@@H]2CCCCN2S(=O)(=O)Cc2ccccc2)cc(OC)c1OC | 
48 | 200 nM | CC(C)(CCC1CCCCC1)OC(=O)C1CCCCN1C(=O)C(=O)C1CCCCC1 (stereo unspecified) | 
49 | 200 nM | COc1cc(CC[C@@H](OC(=O)[C@@H]2CCCCN2C(=O)CC(C)(C)C)c2ccccc2)cc(OC)c1OC | 
50 | 200 nM | CCC(C)(C)C(=O)C(=O)N1CCCCC1C(=O)OCc1ccc2ccccc2c1 (stereo unspecified) | 
51 | 200 nM | O=CC1CCCCN1C(=O)C(=O)C1CCCCC1 (stereo in doubt; 44) | 
52 | 186 nM | CCC(C)(C)C(=O)C(=O)N1CCCCC1C(=O)OCCCC1CCCCC1 (stereo unspecified) | 
53 | 165 nM | CCC(C)(C)C(=O)C(=O)N1CCCCC1C(=O)OCCCc1cccnc1 (stereo unspecified) | 
54 | 160 nM | O=C(O[C@H](CCc1ccccc1)c1ccccc1)[C@@H]1CCCCN1S(=O)(=O)Cc1ccccc1 | 
55 | 110 nM | CCC(C)(C)C(=O)C(=O)N1CCCCC1C(=O)OCCCc1ccccc1 (stereo unspecified) | 
56 | 100 nM | CCC(C)(C)C(=O)C(=O)N1CCCCC1C(=O)OCCCCc1ccccc1 (stereo unspecified) | 
57 | 95 nM | CCC(C)(C)C(=O)C(=O)N1CCCCC1C(=O)OCCCc1ccc(O)cc1 (stereo unspecified) | 
58 | 70 nM | CCC(C)(C)C(=O)C(=O)N1CCCCC1C(=O)OCCCc1ccc(OC)cc1 (stereo unspecified) | 
59 | 60 nM | CCC(C)(C)C(=O)C(=O)N1CCCCC1C(=O)OCCCc1ccccc1OC (stereo unspecified) | 
60 | 60 nM | CCC(C)(C)C(=O)C(=O)N1CCCCC1C(=O)OCCCc1ccc(OCc2ccccc2)cc1 (stereo unspecified) | 
61 | 55 nM | CCC(C)(C)C(=O)C(=O)N1CCCCC1C(=O)OC(CCc1ccccc1)Cc1ccccc1 (stereo unspecified) | 
62 | 35 nM | CCC(C)(C)C(=O)C(=O)N1CCCCC1C(=O)OC/C=C/c1ccc(OC)c(OC)c1 (stereo unspecified) | 
63 | 27 nM | CCC(C)(C)C(=O)C(=O)N1CCCCC1C(=O)OCCC(c1ccccc1)c1ccccc1 (stereo unspecified) | 
64 | 23 nM | CCC(C)(C)C(=O)C(=O)N1CCCCC1C(=O)OCCCc1c[nH]c2ccccc12 (stereo unspecified) | 
65 | 20 nM | CCC(C)(C)C(=O)C(=O)N1CCCCC1C(=O)OCCCc1ccc(OC)c(OC)c1 (stereo unspecified) | 
66 | 20 nM | O=CC1CCCCN1C(=O)C(=O)C1CCCCC1 (stereo in doubt; 59) | 
67 | 12 nM | CCC(C)(C)C(=O)C(=O)N1CCCCC1C(=O)OCCCc1cc(OC)c(OC)c(OC)c1 (stereo unspecified) | 
68 | 10 nM | CCC(C)(C)C(=O)C(=O)N1CCCC[C@@H]1C(=O)OC(CCC1CCCCC1)c1ccccc1 (stereo partly specified) | 
69 | 9 nM | CCC(C)(C)C(=O)C(=O)N1CCCC[C@@H]1C(=O)OC(CCc1ccc2c(c1)OCO2)c1ccccc1 (stereo partly specified) | 
70 | 9 nM | CCC(C)(C)C(=O)C(=O)N1CCCC[C@@H]1C(=O)OC(CCc1cc(OC)c(OC)c(OC)c1)c1ccccc1 (stereo partly specified) | 
71 | 7 nM | CCC(C)(C)C(=O)C(=O)N1CCCC[C@@H]1C(=O)OC(CCc1ccccc1)C1CCCCC1 (stereo partly specified) | 
